Reference: US20150125546A1, “COMBINATION THERAPY FOR TREATING PULMONARY HYPERTENSION” (Gilead Sciences, Inc., priority 2013, published 2015)
Like-named read-outs stand apart in the source and are kept apart here. Ends that are not written are not given here.

Columns and labels:
[1] = test system: cGMP synthesis in isolated intrapulmonary arteries; assay: cGMP content in isolated rat intrapulmonary arteries; settings: for ET-1-stimulated cGMP synthesis in the presence of bosentan / ET-1 plus riociguat-stimulated cGMP synthesis in the presence of bosentan: 100 nM bosentan; for ET-1-stimulated cGMP synthesis in the presence of bosentan: 8 nM ET-1; for ET-1 plus riociguat-stimulated cGMP synthesis in the presence of bosentan: 8 nM ET-1 plus 30 nM riociguat
[2] = test system: endothelin-1 (ET-1)-constricted intrapulmonary arteries isolated from rats; assay: relaxation of ET-1-induced contraction of isolated rat intrapulmonary arterial rings; settings: for relaxation of ET-1-constricted intrapulmonary arteries: 8 nM ET-1; for effect on potency of the other drug to relax ET-1 constricted rat pulmonary arteries: qualitative (FIG. 6, FIG. 7)
[3] = test system: phosphorylation of MLC2 by MLCK; assay: ET-1-stimulated phosphorylation of MLC2 by MLCK in rat pulmonary arteries; settings: qualitative (FIG. 10)
From the text: Further, ambrisentan and riociguat attenuated ET-1 stimulated phosphorylation of MLC2 by MLCK in rat pulmonary arteries (FIG. 10).

ETA receptor = molecular target: T1, ETA receptor (Homo sapiens, UniProt P25101); settings: background statement; read-out: affinity for the ETA receptor; cited from earlier work
T1 sequence (P25101 21-427): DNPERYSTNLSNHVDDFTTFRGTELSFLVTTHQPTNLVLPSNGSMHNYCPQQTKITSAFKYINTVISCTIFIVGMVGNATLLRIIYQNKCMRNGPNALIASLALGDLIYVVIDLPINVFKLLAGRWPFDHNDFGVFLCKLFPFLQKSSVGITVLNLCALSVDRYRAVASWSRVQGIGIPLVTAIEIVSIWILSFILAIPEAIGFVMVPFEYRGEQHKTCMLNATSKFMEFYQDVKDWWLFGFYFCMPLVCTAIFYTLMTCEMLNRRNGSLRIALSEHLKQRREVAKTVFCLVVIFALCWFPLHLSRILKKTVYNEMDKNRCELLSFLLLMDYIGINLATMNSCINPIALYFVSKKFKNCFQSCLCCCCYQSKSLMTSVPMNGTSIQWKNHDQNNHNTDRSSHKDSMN

[4] = 30 nM alone, another run (FIG. 3, FIG. 4)
[5] = 30 nM alone, first run (FIG. 2), mean±SEM

Compound: COC(=O)[C@@H](N)CCCN=C(N)N[N+](=O)[O-].Cl [L-NAME]
- blocking of ET-1 and its combination with riociguat to stimulate cGMP synthesis [1]: significantly blocked

Compound: COC(=O)N(C)c1c(N)nc(-c2nn(Cc3ccccc3F)c3ncccc23)nc1N [riociguat, methyl (4,6-diamino-2-(1-(2-fluorobenzyl)-1H-pyrazolo[3,4-b]pyridin-3-yl)pyrimidin-5-yl)(methyl)carbamate]
- relaxation of ET-1-constricted intrapulmonary arteries [2, 4]: 23.2±6.5%
- relaxation of ET-1-constricted intrapulmonary arteries [2, 5]: 23±3%
- effect on potency of the other drug to relax ET-1 constricted rat pulmonary arteries [2]: increased the potency of ambrisentan
- effect on ET-1 stimulated phosphorylation of MLC2 by MLCK [3]: attenuated
- content of cGMP ([1]; 10 nM ET-1 and 30 nM riociguat in combination): 96±7 pmol/g tissue
- content of cGMP ([1]; 30 nM riociguat alone): 34±5 pmol/g tissue
- effect on ET-1-stimulated cGMP production ([1]; qualitative (FIG. 8)): potentiated ET-1-stimulated cGMP production

Compound: CCCNS(=O)(=O)Nc1ncnc(OCCOc2ncc(Br)cn2)c1-c1ccc(Br)cc1 [macitentan]
- relaxation of ET-1-constricted intrapulmonary arteries [2, 4]: 30.1%
- relaxation of ET-1-constricted intrapulmonary arteries [2, 5]: 30±6%

Compound: COC(c1ccccc1)(c1ccccc1)[C@H](Oc1nc(C)cc(C)n1)C(=O)O [ambrisentan, (2S)-2-[(4,6-dimethylpyrimidin-2-yl)oxy]-3-methoxy-3,3-diphenylpropanoic acid]
- relaxation of ET-1-constricted intrapulmonary arteries ([2]; 10 nM alone, another run (FIG. 3), mean±SEM): 28.5±6.4%
- relaxation of ET-1-constricted intrapulmonary arteries ([2]; 10 nM alone, first run (FIG. 2), mean±SEM): 29±6%
- effect on potency of the other drug to relax ET-1 constricted rat pulmonary arteries [2]: increased the potency of riociguat
- effect on ET-1 stimulated phosphorylation of MLC2 by MLCK [3]: attenuated
- blocking of ET-1 and its combination with riociguat to stimulate cGMP synthesis ([1]; qualitative): but not ambrisentan, significantly blocked
- Ki (ETA receptor): ~12 pM

Compound: Endothelin-1 (CSCSSLMDKECVYFCHLDIIW; ends and bridges not checked; cysteine pairing not given here; UniProt P05305 53-73, looked up) [ET-1]
- content of cGMP ([1]; 10 nM ET-1 alone): 37±4 pmol/g tissue

Compound: COc1ccccc1Oc1c(NS(=O)(=O)c2ccc(C(C)(C)C)cc2)nc(-c2ncccn2)nc1OCCO [bosentan]
- relaxation of ET-1-constricted intrapulmonary arteries ([2]; 100 nM alone, another run (FIG. 4)): 19.8%
- relaxation of ET-1-constricted intrapulmonary arteries ([2]; 100 nM alone, first run (FIG. 2), mean±SEM): 23±3%
- ET-1-stimulated cGMP synthesis in the presence of bosentan ([1]; another run (FIG. 9)): 36 pmol/g tissue
- ET-1-stimulated cGMP synthesis in the presence of bosentan ([1]; first run): 21±3 pmol/g tissue
- ET-1 plus riociguat-stimulated cGMP synthesis in the presence of bosentan ([1]; another run (FIG. 9)): 97 pmol/g tissue
- ET-1 plus riociguat-stimulated cGMP synthesis in the presence of bosentan ([1]; first run): 37±3 pmol/g tissue
- blocking of ET-1 and its combination with riociguat to stimulate cGMP synthesis ([1]; qualitative): significantly blocked
